We go through eleven compounds from ChEMBL document CHEMBL5126539, “Recent development of BTK-based dual inhibitors in the treatment of cancers” (Eur J Med Chem, 2022).

Where only a bound is given, the exact number is not on record here.

In assay [1] the test system is DOHH-2. Nature of the assay: Cytotoxicity against human DOHH-2 cells expressing BTK and PI3kdelta assessed as inhibition of cell growth incubated for 72 hrs by celltiter-glo assay. It is filed as functional, cell-based. As to conditions: DOHH-2, 72 h. For orientation: ATP-based viability assays read luminescence as a measure of living cells.
In assay [2] the test system is DOHH-2. As to the kind of experiment: Antitumor activity against human DOHH-2 cells xenografted in CB17/SCID mouse assessed as reduction in tumor growth at 15 mg/kg, po administered once daily in combination with idelalisib at 25 mg/kg for 30 days and measured twice a week relative to control. Set-up: scale not given: the % may be the effect or the level left. It is filed as functional. Particulars: time 30 day. (In general: A xenograft is tissue or cells of one species grown in another, often human tumour cells in immunodeficient mice.)

The subject of assay [3] is DOHH-2. Nature of the assay: Antitumor activity against human DOHH-2 cells xenografted in CB17/SCID mouse assessed as reduction in tumor growth at 30 mg/kg, po administered once daily in combination with idelalisib at 50 mg/kg for 30 days and measured twice a week relative to control. Particulars: time 30 day. It is filed as functional. Details: scale not given: the % may be the effect or the level left.

For assay [4], the target named is T1, Cytoplasmic tyrosine-protein kinase BMX (Homo sapiens) (UniProt P51813).
T1 sequence (whole entry): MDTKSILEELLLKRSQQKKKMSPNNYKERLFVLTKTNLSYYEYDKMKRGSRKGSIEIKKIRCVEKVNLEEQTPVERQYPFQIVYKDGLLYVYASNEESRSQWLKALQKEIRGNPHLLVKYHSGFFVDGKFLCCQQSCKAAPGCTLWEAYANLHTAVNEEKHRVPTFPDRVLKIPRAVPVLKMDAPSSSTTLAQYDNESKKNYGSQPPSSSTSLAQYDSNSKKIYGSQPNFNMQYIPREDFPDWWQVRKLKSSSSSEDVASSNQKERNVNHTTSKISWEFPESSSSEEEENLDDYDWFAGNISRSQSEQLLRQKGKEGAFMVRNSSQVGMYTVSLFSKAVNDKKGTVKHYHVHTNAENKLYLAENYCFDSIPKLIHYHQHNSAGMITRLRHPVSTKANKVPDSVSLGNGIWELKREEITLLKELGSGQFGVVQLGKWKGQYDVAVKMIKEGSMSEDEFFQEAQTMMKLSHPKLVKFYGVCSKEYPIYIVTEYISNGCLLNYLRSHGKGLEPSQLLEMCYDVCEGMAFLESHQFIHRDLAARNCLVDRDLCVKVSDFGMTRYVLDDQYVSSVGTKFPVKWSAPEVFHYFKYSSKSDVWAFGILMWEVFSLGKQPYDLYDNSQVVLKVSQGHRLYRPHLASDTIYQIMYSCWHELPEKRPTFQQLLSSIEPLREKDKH
As to the kind of experiment: Inhibition of BMX (unknown origin) assessed as residual activity at 200 nM relative to control.

For assay [5], the target named is T2, Tyrosine-protein kinase BTK (Homo sapiens, UniProt Q06187). Nature of the assay: Inhibition of BTK (unknown origin) assessed as residual activity at 200 nM relative to control.
Assay [6] in a line: Inhibition of mTORC1 (unknown origin) expressed in HEK293T cells using 4EBP1 as substrate assessed as reduction in substrate phosphorylation preincubated for 30 mins followed by ATP addition and measured after 30 mins by Western blot analysis. Details: species or system Homo sapiens. A general note: Immunoblotting shows a protein as a band on a membrane.
In assay [7] the target is T2, Tyrosine-protein kinase BTK. As to the kind of experiment: Inhibition of BTK (unknown origin).
The target in assay [8] is Tyrosine-protein kinase HCK (Homo sapiens, UniProt P08631). Nature of the assay: Inhibition of HCK (unknown origin).
Assay [9] deals with Tubulin (Homo sapiens) (UniProt P68371+Q9H4B7+P0DPH7+P68366+Q13509+Q71U36+P04350+Q3ZCM7+P07437+P68363+Q9BQE3+Q6PEY2+Q13885+Q9BVA1+Q9BUF5). Nature of the assay: Inhibition of microtubule polymerization in human U-266 cells assessed as increase in phospho-Bcl2 expression at 10 uM measured upto 24 hrs by Western blot analysis relative to control. It is filed as cell-based.
In assay [10] the test system is MV4-11. Nature of the assay: Antiproliferative activity against human MV4-11 cells assessed as inhibition of cell growth. In kind it is functional, cell-based.
For assay [11], the system named is MOLM-13. As to the kind of experiment: Antiproliferative activity against human MOLM-13 cells assessed as inhibition of cell growth. It is filed as functional, cell-based.
Assay [12] concerns BaF3. As to the kind of experiment: Antiproliferative activity against mouse BaF3 cells expressing wild type FLT3 assessed as inhibition of cell growth. In kind it is functional, cell-based.
The test system of assay [13] is BaF3. Nature of the assay: Antiproliferative activity against mouse BaF3 cells expressing […] FLT3 ITD mutant assessed as inhibition of cell growth. In kind it is functional, cell-based.
The test system of assay [14] is BaF3. Nature of the assay: Antiproliferative activity against mouse BaF3 cells expressing […] FLT3 […] mutant assessed as inhibition of cell growth. In kind it is functional, cell-based.
Assay [15] relates to BaF3. Nature of the assay: Antiproliferative activity against mouse BaF3 cells expressing […] FLT3 ITD/[…] double mutant assessed as inhibition of cell growth. In kind it is functional, cell-based.
Assay [16] has as its system BaF3. Nature of the assay: Antiproliferative activity against mouse BaF3 cells expressing […] FLT3 ITD F691L mutant assessed as inhibition of cell growth. It is filed as functional, cell-based.
For assay [17], the target named is T3, Tyrosine-protein kinase JAK3 (Homo sapiens, UniProt P52333).
T3 sequence (P52333 whole entry): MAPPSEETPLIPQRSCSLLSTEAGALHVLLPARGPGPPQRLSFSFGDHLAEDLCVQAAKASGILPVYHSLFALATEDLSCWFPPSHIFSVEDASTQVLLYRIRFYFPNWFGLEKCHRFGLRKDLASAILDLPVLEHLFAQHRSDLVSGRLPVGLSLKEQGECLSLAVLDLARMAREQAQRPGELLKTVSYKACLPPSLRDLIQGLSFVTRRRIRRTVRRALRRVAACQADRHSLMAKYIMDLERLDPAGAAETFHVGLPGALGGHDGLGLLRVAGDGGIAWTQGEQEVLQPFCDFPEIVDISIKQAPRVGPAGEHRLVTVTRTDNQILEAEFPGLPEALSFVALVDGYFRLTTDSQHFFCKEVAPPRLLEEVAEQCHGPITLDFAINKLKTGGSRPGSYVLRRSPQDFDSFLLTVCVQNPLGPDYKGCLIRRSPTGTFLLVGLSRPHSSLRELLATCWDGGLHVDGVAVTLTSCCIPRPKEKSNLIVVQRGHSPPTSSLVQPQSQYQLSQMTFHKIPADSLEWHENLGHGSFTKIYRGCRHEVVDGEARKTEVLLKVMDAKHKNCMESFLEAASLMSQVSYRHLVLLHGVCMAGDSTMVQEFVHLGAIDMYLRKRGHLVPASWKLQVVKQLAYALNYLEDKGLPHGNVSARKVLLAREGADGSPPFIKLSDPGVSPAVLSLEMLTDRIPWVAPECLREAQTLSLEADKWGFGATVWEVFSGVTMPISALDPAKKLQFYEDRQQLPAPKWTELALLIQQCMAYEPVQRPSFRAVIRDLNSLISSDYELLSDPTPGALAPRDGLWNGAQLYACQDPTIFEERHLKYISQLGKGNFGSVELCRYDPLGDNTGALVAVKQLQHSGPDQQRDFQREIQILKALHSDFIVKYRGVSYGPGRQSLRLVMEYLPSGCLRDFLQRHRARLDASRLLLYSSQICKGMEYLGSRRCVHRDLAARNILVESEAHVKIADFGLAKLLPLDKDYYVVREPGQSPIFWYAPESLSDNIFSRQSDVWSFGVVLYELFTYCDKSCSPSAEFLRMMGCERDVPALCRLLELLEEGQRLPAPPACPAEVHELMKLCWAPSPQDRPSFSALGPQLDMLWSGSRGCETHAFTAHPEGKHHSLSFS
Nature of the assay: Inhibition of recombinant JAK3 (unknown origin).

Assay [18] has as its target T2, Tyrosine-protein kinase BTK. Nature of the assay: Inhibition of N-terminal His6-tagged human full length recombinant BTK expressed in baculovirus infected Sf21 insect cells using YIYGSFK as substrate preincubated for 5 mins followed by 33p-labeled ATP addition and measured after 1 hr by thin layer chromatography.
The test system of assay [19] is PC-3. Nature of the assay: Antitumor activity against human PC-3 cells xenografted in nude mouse assessed as inhibition of tumor growth at 10 mg/kg/day, ip administered for 42 days starting from 14 days post inoculation relative to control. In kind it is functional. As to conditions: PC-3, 1008 h, time 42 day, read-out: TGI.
Assay [20] has as its system DOHH-2. As to the kind of experiment: Antitumor activity against human DOHH-2 cells xenografted in CB17/SCID mouse assessed as reduction in tumor growth at 100 mg/kg, po administered twice daily for 30 days and measured twice a week relative to control. In kind it is functional. Details: scale not given: the % may be the effect or the level left. Particulars: time 30 day.

Assay [21] has as its target T2, Tyrosine-protein kinase BTK. Nature of the assay: Inhibition of N-terminal His tagged human recombinant full length BTK expressed in baculovirus infected Sf9 insect cells using Poly (4:1 Glu, Tyr) Peptide as substrate at 0.5 uM incubated for 60 mins by ADP-glo reagent based luminescence assay relative to control.
A short description of assay [22]: Cytotoxicity against human MM.1 cells assessed as inhibition of cell growth incubated for 48 hrs by MTT assay. It is filed as functional, cell-based. As to conditions: Mm1, 48 h.
Assay [23] has as its system U-266. As to the kind of experiment: Cytotoxicity against human U-266 cells assessed as inhibition of cell growth incubated for 48 hrs by MTT assay. It is filed as functional, cell-based. Particulars: U-266, 48 h.
For assay [24], the system named is RPMI-8226. Nature of the assay: Cytotoxicity against human RPMI-8226 cells assessed as inhibition of cell growth incubated for 48 hrs by MTT assay. It is filed as functional, cell-based. Particulars: RPMI-8226, 48 h.
Assay [25] concerns U-266. As to the kind of experiment: Antitumor activity against human U-266 cells xenografted in BALB/c nude mouse assessed as tumor growth inhibition at 1 mg/kg, ip administered twice weekly and measured for 4 weeks by digital caliper analysis relative to control. In kind it is functional. Particulars: U-266, 672 h, read-out: TGI.
For assay [26], the system named is DOHH-2. Nature of the assay: Antitumor activity against human DOHH-2 cells xenografted in CB17/SCID mouse assessed as reduction in tumor growth at 25 mg/kg, po administered twice daily in combination with ibrutinib at 15 mg/kg for 30 days and measured twice a week relative to control. It is filed as functional. Set-up: scale not given: the % may be the effect or the level left. Particulars: time 30 day.

For assay [27], the system named is DOHH-2. As to the kind of experiment: Antitumor activity against human DOHH-2 cells xenografted in CB17/SCID mouse assessed as reduction in tumor growth at 50 mg/kg, po administered twice daily in combination with ibrutinib at 30 mg/kg for 30 days and measured twice a week relative to control. In kind it is functional. Set-up: scale not given: the % may be the effect or the level left. As to conditions: time 30 day.

T2 sequence (Q06187 whole entry): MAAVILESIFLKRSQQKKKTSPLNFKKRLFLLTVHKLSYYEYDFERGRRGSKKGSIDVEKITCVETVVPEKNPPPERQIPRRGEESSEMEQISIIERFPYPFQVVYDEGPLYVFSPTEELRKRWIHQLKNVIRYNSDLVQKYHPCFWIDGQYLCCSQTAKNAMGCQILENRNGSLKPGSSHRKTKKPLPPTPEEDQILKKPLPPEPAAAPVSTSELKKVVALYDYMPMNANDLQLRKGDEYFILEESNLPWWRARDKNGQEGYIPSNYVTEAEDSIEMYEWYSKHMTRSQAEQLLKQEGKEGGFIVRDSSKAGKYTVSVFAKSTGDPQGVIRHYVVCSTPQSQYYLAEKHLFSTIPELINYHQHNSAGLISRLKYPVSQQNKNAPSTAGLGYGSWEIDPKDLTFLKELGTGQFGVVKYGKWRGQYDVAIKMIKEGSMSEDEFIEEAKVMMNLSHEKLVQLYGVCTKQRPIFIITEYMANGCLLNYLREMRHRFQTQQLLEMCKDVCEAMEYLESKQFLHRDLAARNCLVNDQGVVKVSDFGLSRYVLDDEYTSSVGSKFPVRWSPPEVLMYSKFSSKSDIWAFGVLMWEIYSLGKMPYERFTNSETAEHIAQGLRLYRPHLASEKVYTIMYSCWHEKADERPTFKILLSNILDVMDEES
Chain of Tyrosine-protein kinase HCK (P08631 whole entry): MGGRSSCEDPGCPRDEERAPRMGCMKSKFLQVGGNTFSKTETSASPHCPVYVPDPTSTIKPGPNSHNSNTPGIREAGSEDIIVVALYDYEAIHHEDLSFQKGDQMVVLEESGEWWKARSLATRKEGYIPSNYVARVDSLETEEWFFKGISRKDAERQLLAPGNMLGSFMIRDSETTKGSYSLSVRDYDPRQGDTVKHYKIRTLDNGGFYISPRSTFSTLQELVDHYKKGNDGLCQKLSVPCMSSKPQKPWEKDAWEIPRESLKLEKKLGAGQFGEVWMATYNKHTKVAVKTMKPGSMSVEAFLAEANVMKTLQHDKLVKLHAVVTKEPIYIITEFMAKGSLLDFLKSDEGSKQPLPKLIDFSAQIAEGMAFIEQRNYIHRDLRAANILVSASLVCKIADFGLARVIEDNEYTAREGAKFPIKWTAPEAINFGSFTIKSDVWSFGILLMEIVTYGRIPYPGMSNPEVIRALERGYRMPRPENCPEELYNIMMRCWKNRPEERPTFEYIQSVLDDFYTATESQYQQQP

A word on the IC50: it is the concentration that inhibits the measured activity by half. As to `C=CC(=O)N1CCC[C@@H](n2nc(-c3ccc(Oc4ccccc4)cc3)c3c(N)ncnc32)C1` [IBRUTINIB], the concentration for half-maximal inhibition (IC50) in assay [1] stood at 23 nM. Further, the Activity in assay [2] was 38.1%; in assay [3], 57.9%.
Regarding `C=CC(=O)Nc1cccc(-c2c[nH]c3ncccc23)c1`, the results for the Activity in assay [4] and in [5] were 2.7% and 18.2%, respectively.
As to `Nc1ccc(-c2ccc3ncc4ccc(=O)n(-c5cccc(C(F)(F)F)c5)c4c3c2)cn1`, the concentration for half-maximal inhibition (IC50) in assay [6] was found to be 0.25 nM.
As to `CN1CCN([C@H]2CC[C@H](n3nc(-c4ccc(Oc5ccccc5)cc4)c4c(N)ncnc43)CC2)CC1`, the IC50 is 0.92 nM in [7] and < 0.5 nM in assay [8].
A word on the inhibition: it is the drop in the measured response relative to a control, in per cent. Regarding `CC[C@]1(O)C[C@@H]2CN(CCc3c([nH]c4ccccc34)[C@@](C(=O)OC)(c3cc4c(cc3OC)N(C)[C@H]3[C@@](O)(C(=O)OC)[C@H](OC(C)=O)[C@]5(CC)C=CCN6CC[C@]43[C@@H]65)C2)C1`, the inhibition in [9] is 66%.
Regarding `Cc1cnc(-c2ccc(-c3ccc(NC(=O)Nc4cccc(C(F)(F)F)c4)cc3F)c3c2C(=O)NC3)[nH]1`, the IC50 came out at 0.17 nM in [10]; 0.82 nM in assay [11]; 9.49 nM in assay [12]; 0.3 nM in assay [13]; 8.26 nM in assay [14]; 9.72 nM in assay [15]. For the same compound, in assay [16], the IC50 amounted to 0.43 nM.
`C=CC(=O)Nc1cccc(-c2c[nH]c3ncc(NC(=O)c4cccs4)cc23)c1`: the IC50 was > 10000 nM in assay [17] and < 1 nM in assay [7].
For `CC(C)Cc1nc2cc3c(cc2[nH]c1=O)nc(NC(=O)c1ccc(-c2ccncc2)cc1)n3CCCN1CCCCC1`, in assay [18], the IC50 is 50 nM. The inhibition in vivo at 10 mg/kg/day in assay [19] was 70%.
As to `Nc1ccc2c(c1)CC(n1nc(-c3cc(F)c4c(c3)NCCO4)c3c(N)ncnc31)C2` (stereo unspecified), the 50% inhibitory concentration (IC50) in [1] is 1340 nM. Besides, the Activity in assay [20] came out at 45.2%.
As to `N#CSCc1ccc(CN2C(=O)C(=O)c3cc(Br)cc(Br)c32)cc1`, the figures for the inhibition in [21] and in assay [9] were 50% and 77%, respectively. The IC50 in [22], in assay [23] and in [24] was 500 nM each time. In assay [25], the inhibition in vivo at 1 mg/kg is 50%.
As for `CC[C@H](Nc1ncnc2[nH]cnc12)c1nc2cccc(F)c2c(=O)n1-c1ccccc1` [IDELALISIB], the concentration for half-maximal inhibition (IC50) in assay [1] was 860 nM. In addition, the Activity in [26] is recorded as 38.1%; in assay [27] it was 57.9%.
